Data from BigSolDB 2.1.

NC(=O)C[C@H](NC(=O)OCc1ccccc1)C(=O)O
solubility (mole fraction)
Settings	283.15 K	288.15 K	293.15 K	298.15 K	303.15 K	308.15 K	313.15 K	318.15 K	323.15 K
in 1,4-dioxane	–	0.00212	0.00241	0.00271	0.00317	0.00358	0.00419	0.0049	0.0057
in 2-butanone	0.000329	0.000433	0.000544	0.000652	0.000745	0.00086	0.001	0.00112	0.00128
in acetone	0.000747	0.000777	0.000832	0.000971	0.00112	0.00136	0.00161	0.00194	0.00262
in acetonitrile	7.48e-05	0.000149	0.000221	0.000305	0.000395	0.000498	0.000599	0.00069	0.000775
in ethanol	0.000263	0.000463	0.000753	0.00114	0.00161	0.00213	0.00265	0.00311	0.00347
in isobutanol	4.91e-05	6.83e-05	9.5e-05	0.000157	0.000269	0.000403	0.000581	0.000831	0.00107
in isopropanol	8.58e-05	0.000238	0.000431	0.000625	0.000834	0.00105	0.00127	0.00153	0.00177
in methanol	0.00174	0.00188	0.00233	0.00274	0.00344	0.00413	0.00524	0.00647	0.00801
in n-butanol	0.00023	0.000293	0.000361	0.000476	0.000644	0.000846	0.0011	0.00135	0.00171
in n-pentanol	0.000182	0.000221	0.00027	0.000325	0.000415	0.000535	0.000652	0.000829	0.00104
in n-propanol	0.000285	0.000339	0.000439	0.000576	0.000737	0.000887	0.00116	0.00142	0.00175
in water	2.14e-05	2.75e-05	4.02e-05	5.55e-05	7.33e-05	9.44e-05	0.000121	0.000152	0.000198
